Assay results from US20240285670A1, “THERAPEUTIC TREATMENT OF TUMORS BY BLOCKING THE HEME SYNTHESIS-EXPORT AXIS” (Università degli Studi di Torino, priority 2021, published 2024).

What was measured:
[1] = system: Caco2 cells; experiment: Intracellular 5-ALA levels and 13C-isotope labelling (LC-MS) in Caco2 cells; type: cell-based, human
Procedure: (A) Heme content in Caco2 cells treated with 5 mM 5-ALA (black bars and white bars) or with 5 mM 5-ALA+0.5 mM SA (light grey outlined bars) for the indicated time points. […] Values are expressed as relative fluorescence intensity. Data represent mean±SEM, n=2. For statistical analyses, a two-way analysis of variance was used, followed by the Bonferroni correction for multiple group comparisons; **=p<0.01, ***=p<0.001. 5-ALA, 5-aminolevulinic acid; SA, succinylacetone. (B) Intracellular 5-ALA levels. […] Values are expressed as peak area/μg proteins. Data represent mean±SEM of n=4 wells pooled from two independent experiments. For statistical analyses, an unpaired Student's t-test was used; **=p<0.01. 5-ALA, 5-aminolevulinic acid. (C, D) Accumulation of ^13C2-5-ALA in cells incubated with U-^13C-glucose (C) or of ^13C3-5-ALA in cells incubated with U-^13C-glutamine (D) for the indicated time. […] Values are expressed as peak area/μg proteins. Data represent mean±SEM of n=4 wells pooled from two independent experiments. For statistical analyses, a two-way analysis of variance was used, followed by the Bonferroni correction for multiple group comparisons; ***p<0.001. […] Transcript abundance, normalized to beta-actin mRNA expression, is expressed as a fold increase over a calibrator sample. […] Band intensities were measured by densitometry and normalized to vinculin expression. […]

[2] = system: C80 cells; experiment: Flow cytometric analysis of apoptosis in C80 cells; type: cell-based, human; details: FLVCR1a-silenced vs scramble shRNA, synchronized C80 cells
Source text: (A) Proliferation of Caco2 cells assessed by crystal violet staining at the indicated days; bar=1000 μm. […] Staining quantification is reported in the bar graph as percentage of crystal violet stained area. Data represent mean±SEM, n=4. For statistical analyses, a two-way analysis of variance was used, followed by the Bonferroni correction for multiple group comparisons; *=p<0.05, ***=p<0.001. (B) Caco2 cells viability the day of plating (day 0) and three days after plaiting (day 3). The measure is considered a readout of cell proliferation. […] Data represent mean±SEM, n=3 wells. For statistical analyses, a two-way analysis of variance was used, followed by the Bonferroni correction for multiple group comparisons; *=p<0.05, **=p<0.01. (C, D, E) Representative flow cytometric analyses of apoptosis in synchronized Caco2 (C), SKCO1 (D) and C80 (E) cells. […] Data represent mean±SEM, n=4 wells pooled from two independent experiments. For statistical analyses, an unpaired Student's t-test was used; *=p<0.05, **=p<0.01. […]
Stained cells were analyzed using a FACSCanto II cytofluorimeter and processed with BD FACSDIVA Software v8.1 (BD Biosciences, Milan, IT; http://www.bdbiosciences.com/instruments/software/facsdiva/index.jsp/ RRID:SCR_001456), acquiring at least 10,000 events per sample or 25,000 cells per sample for cell cycle experiments.

## FLVCR1a shRNA: shRNA specifically down-regulating FLVCR1a without targeting FLVCR1b; pLKO.1 lentiviral clone TRCN0000059599, antisense SEQ ID No.: 2 (antisense TTGCTAATGATGCTGTACTGG; sense CCAGTACAGCATCATTAGCAA)
[1]; FLVCR1a-silenced vs scramble shRNA Caco2 cells
  Intracellular 5-ALA levels: lower amount of 5-ALA
[1]; U-13C-glucose or U-13C-glutamine, time course, FLVCR1a-silenced vs scramble
  incorporation of labelled carbons in 5-ALA: reduced incorporation of labelled carbons in 5-ALA
[2]
  apoptosis: increased apoptosis
